Data published in patent US10654917B2, “Antibody molecules and peptide delivery systems for use in alzheimer's disease and related disorders” (TECHNOPHAGE, INVESTIGAÇĀO E DESENVOLVIMENTO EM …, priority 2015, dated 2020).
Like-named read-outs stand apart in the source and are kept apart here. Residues, ends and D or L forms follow the SMILES beside them. *: point of attachment. X1 = Cc1nn(CCN(CCN)CCCC(=O)*)c(C)c1CC(=O)O

What was measured:
[1] = Partition coefficient (log Po/w) of radiopeptides; assay type: physicochemical
Text: Table 7 lists each peptide's name, isoelectric point (PI), charge (number of positive residues), calculated mass (in Da), and ion found; as well as the name, calculated mass, and found ion for the corresponding conjugate; and also retention times in HPLC and the partition coefficient (log Po/w). These values allowed the determination of the hydrophilic nature of peptides, where pepH1 and pepH4 were identified as the most hydrophilic peptides.

[2] = Biodistribution of technetium-labelled peptides; assay type: in vivo, CD1 mice; settings: iv, total radioactivity
How it was run: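 CD1 mice received technetium-labelled peptide (8.5×10^−5 M final labelling concentration, in PBS) by tail-vein iv injection; in a repeat study dose was raised one hundred fold. Organs were dissected, washed, weighed and counted at 5 and 60 min, or 2 and 60 min in the repeat, as % injected activity or per gram tissue.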

CC[C@H](C)[C@H](NC(=O)CNC(=O)[C@H](C)NC(=O)CCCN(CCN)CCn1nc(C)c(CC(=O)O)c1C)C(=O)N[C@@H](CC(C)C)C(=O)N[C@@H](CCCCN)C(=O)N[C@@H](CCCNC(=N)N)C(=O)N[C@@H](Cc1c[nH]c2ccccc12)C(=O)O [^99mTc(CO)3-Pz^1-pepH3, metal not drawn] (X1-AGILKRW-OH; C-terminus assumed)
log Po/w of radiopeptides [1]: 0.11 ± 0.06
tissue uptake at 2 min ([2]; CD1, blood, 140 ug/mouse, 140 μg/mouse, read-out: injected activity in Blood): 8.6 ± 0.9 %ID/g
tissue uptake at 1 h ([2]; CD1, blood, 140 ug/mouse, 140 μg/mouse, 1 hour, read-out: injected activity in Blood): 0.43 ± 0.04 %ID/g
tissue uptake at 2 min ([2]; CD1, bone, 140 ug/mouse, 140 μg/mouse, read-out: injected activity in Bone): 1.89 ± 0.04 %ID/g
tissue uptake at 1 h ([2]; CD1, bone, 140 ug/mouse, 140 μg/mouse, 1 hour, read-out: injected activity in Bone): 0.19 ± 0.01 %ID/g
tissue uptake at 2 min ([2]; CD1, brain, 140 ug/mouse, 140 μg/mouse, read-out: injected activity in Brain): 0.31 ± 0.07 %ID/g
tissue uptake at 1 h ([2]; CD1, brain, 140 ug/mouse, 140 μg/mouse, 1 hour, read-out: injected activity in Brain): 0.03 ± 0.01 %ID/g
tissue uptake at 2 min ([2]; CD1, heart, 140 ug/mouse, 140 μg/mouse, read-out: injected activity in Heart): 2.2 ± 0.3 %ID/g
tissue uptake at 1 h ([2]; CD1, heart, 140 ug/mouse, 140 μg/mouse, 1 hour, read-out: injected activity in Heart): 0.14 ± 0.01 %ID/g
dose excreted at 1 h ([2]; CD1, in vivo, 140 ug/mouse, 140 μg/mouse, 1 hour, read-out: Excretion): 36 ± 11.2%
tissue uptake at 2 min ([2]; CD1, intestine, 140 ug/mouse, 140 μg/mouse, read-out: injected activity in Intestine): 1.4 ± 0.2 %ID/g
tissue uptake at 1 h ([2]; CD1, intestine, 140 ug/mouse, 140 μg/mouse, 1 hour, read-out: injected activity in Intestine): 23 ± 7.9 %ID/g
tissue uptake at 2 min ([2]; CD1, kidney, 140 ug/mouse, 140 μg/mouse, read-out: injected activity in Kidney): 23.1 ± 3.4 %ID/g
tissue uptake at 1 h ([2]; CD1, kidney, 140 ug/mouse, 140 μg/mouse, 1 hour, read-out: injected activity in Kidney): 3.5 ± 0.7 %ID/g
tissue uptake at 2 min ([2]; CD1, liver, 140 ug/mouse, 140 μg/mouse, read-out: injected activity in Liver): 18.8 ± 6.1 %ID/g
tissue uptake at 1 h ([2]; CD1, liver, 140 ug/mouse, 140 μg/mouse, 1 hour, read-out: injected activity in Liver): 2.3 ± 0.2 %ID/g
tissue uptake at 2 min ([2]; CD1, lung, 140 ug/mouse, 140 μg/mouse, read-out: injected activity in Lung): 4.48 ± 0.01 %ID/g
tissue uptake at 1 h ([2]; CD1, lung, 140 ug/mouse, 140 μg/mouse, 1 hour, read-out: injected activity in Lung): 0.31 ± 0.03 %ID/g
tissue uptake at 2 min ([2]; CD1, muscle, 140 ug/mouse, 140 μg/mouse, read-out: injected activity in Muscle): 1.4 ± 0.2 %ID/g
tissue uptake at 1 h ([2]; CD1, muscle, 140 ug/mouse, 140 μg/mouse, 1 hour, read-out: injected activity in Muscle): 0.2 ± 0.1 %ID/g
tissue uptake at 2 min ([2]; CD1, spleen, 140 ug/mouse, 140 μg/mouse, read-out: injected activity in Spleen): 1.6 ± 0.4 %ID/g
tissue uptake at 1 h ([2]; CD1, spleen, 140 ug/mouse, 140 μg/mouse, 1 hour, read-out: injected activity in Spleen): 0.81 ± 0.01 %ID/g
tissue uptake at 2 min ([2]; CD1, stomach, 140 ug/mouse, 140 μg/mouse, read-out: injected activity in Stomach): 1.1 ± 0.2 %ID/g
tissue uptake at 1 h ([2]; CD1, stomach, 140 ug/mouse, 140 μg/mouse, 1 hour, read-out: injected activity in Stomach): 5.2 ± 0.7 %ID/g
tissue uptake at 5 min ([2]; mouse, blood, 10 ug, CD1 mice, 5 min, 10 μg, read-out: injected activity in Blood): 4.7 ± 0.6 %ID/g
tissue uptake at 1 h ([2]; mouse, blood, 10 ug, CD1 mice, 1 hour, 10 μg, read-out: injected activity in Blood): 1.2 ± 0.4 %ID/g
tissue uptake at 5 min ([2]; mouse, bone, 10 ug, CD1 mice, 5 min, 10 μg, read-out: injected activity in Bone): 1.2 ± 0.1 %ID/g
tissue uptake at 1 h ([2]; mouse, bone, 10 ug, CD1 mice, 1 hour, 10 μg, read-out: injected activity in Bone): 0.26 ± 0.05 %ID/g
tissue uptake at 5 min ([2]; mouse, brain, 10 ug, CD1 mice, 5 min, 10 μg, read-out: injected activity in Brain): 0.15 ± 0.02 %ID/g
tissue uptake at 1 h ([2]; mouse, brain, 10 ug, CD1 mice, 1 hour, 10 μg, read-out: injected activity in Brain): 0.04 ± 0.01 %ID/g
tissue uptake at 5 min ([2]; mouse, heart, 10 ug, CD1 mice, 5 min, 10 μg, read-out: injected activity in Heart): 1.5 ± 0.5 %ID/g
tissue uptake at 1 h ([2]; mouse, heart, 10 ug, CD1 mice, 1 hour, 10 μg, read-out: injected activity in Heart): 0.35 ± 0.01 %ID/g
percent of injected dose excreted at 5 min ([2]; mouse, in vivo, 10 ug, CD1 mice, 5 min, 10 μg, read-out: Excretion): 19.6 ± 0.3 %ID
percent of injected dose excreted at 1 h ([2]; mouse, in vivo, 10 ug, CD1 mice, 1 hour, 10 μg, read-out: Excretion): 10.5 ± 8.6 %ID
tissue uptake at 5 min ([2]; mouse, intestine, 10 ug, CD1 mice, 5 min, 10 μg, read-out: injected activity in Intestine): 3 ± 0.3 %ID/g
tissue uptake at 1 h ([2]; mouse, intestine, 10 ug, CD1 mice, 1 hour, 10 μg, read-out: injected activity in Intestine): 7.4 ± 0.4 %ID/g
tissue uptake at 5 min ([2]; mouse, kidney, 10 ug, CD1 mice, 5 min, 10 μg, read-out: injected activity in Kidney): 11.9 ± 3.8 %ID/g
tissue uptake at 1 h ([2]; mouse, kidney, 10 ug, CD1 mice, 1 hour, 10 μg, read-out: injected activity in Kidney): 0.4 ± 2 %ID/g
tissue uptake at 5 min ([2]; mouse, liver, 10 ug, CD1 mice, 5 min, 10 μg, read-out: injected activity in Liver): 7.6 ± 0.1 %ID/g
tissue uptake at 1 h ([2]; mouse, liver, 10 ug, CD1 mice, 1 hour, 10 μg, read-out: injected activity in Liver): 2.3 ± 0.2 %ID/g
tissue uptake at 5 min ([2]; mouse, lung, 10 ug, CD1 mice, 5 min, 10 μg, read-out: injected activity in Lung): 3.7 ± 0.2 %ID/g
tissue uptake at 1 h ([2]; mouse, lung, 10 ug, CD1 mice, 1 hour, 10 μg, read-out: injected activity in Lung): 1 ± 0.2 %ID/g
tissue uptake at 5 min ([2]; mouse, muscle, 10 ug, CD1 mice, 5 min, 10 μg, read-out: injected activity in Muscle): 1 ± 0.2 %ID/g
tissue uptake at 1 h ([2]; mouse, muscle, 10 ug, CD1 mice, 1 hour, 10 μg, read-out: injected activity in Muscle): 0.3 ± 0.1 %ID/g
tissue uptake at 5 min ([2]; mouse, pancreas, 10 ug, CD1 mice, 5 min, 10 μg, read-out: injected activity in Pancreas): 1.1 ± 0.1 %ID/g
tissue uptake at 1 h ([2]; mouse, pancreas, 10 ug, CD1 mice, 1 hour, 10 μg, read-out: injected activity in Pancreas): 0.5 ± 0.2 %ID/g
tissue uptake at 5 min ([2]; mouse, spleen, 10 ug, CD1 mice, 5 min, 10 μg, read-out: injected activity in Spleen): 1.5 ± 0.2 %ID/g
tissue uptake at 1 h ([2]; mouse, spleen, 10 ug, CD1 mice, 1 hour, 10 μg, read-out: injected activity in Spleen): 0.81 ± 0.01 %ID/g
tissue uptake at 5 min ([2]; mouse, stomach, 10 ug, CD1 mice, 5 min, 10 μg, read-out: injected activity in Stomach): 0.17 ± 0.02 %ID/g
tissue uptake at 1 h ([2]; mouse, stomach, 10 ug, CD1 mice, 1 hour, 10 μg, read-out: injected activity in Stomach): 0.4 ± 0.2 %ID/g
